Assay results as given in US20140024171A1, “PERYLENE TETRACARBOXYLIC ACID BISIMIDE DERIVATIVE, N-TYPE SEMICONDUCTOR, A METHOD FOR PRODUCING N-TYPE SEMICONDUCTOR, AND ELECTRONIC DEVICE” (NATIONAL UNIVERSITY CORPORATION KAGAWA UNIVERSITY, priority 2012, published 2014).
Entries after “also recorded” stand apart in the source; their conditions may differ.

Tests used:
[1] = Charge transport properties (carrier mobility) by transient photocurrent measurement, Time-of-Flight (TOF) method; assay type: physicochemical; settings: for maximum electron mobility calculated by the TOF method: room temperature (25° C.), sample thickness 9 μm, applied voltage 10 V to 100 V
Description: Charge transport properties (carrier mobility properties) of the liquid crystal compound (2-1) ((2), m=1, n=1) obtained in Example 2 were measured by a Time-of-Flight (TOF) method. In this method, while a DC voltage was applied to a sandwich-type sample (liquid crystal cell produced in Example 4) having photoconductivity, the sample was irradiated with a pulse laser to cause photocarriers to be generated on one side of the sample, and a change in displacement current (transient photocurrent) induced in an external circuit when the carriers transited in the sample over time was measured. A constant current was generated by the transit of photocarriers, and when the carriers reached the counter electrode, the current was decayed to 0. The time from a start of decay in transient photocurrent to 0 corresponds to the time required for the carriers to transit in the sample (transit time). When the thickness of the sample is represented by d (cm), an applied voltage is represented by V (volt), and the transit time is represented by tT, mobility p (cm^2/Vs) is represented by the following mathematical expression. When an electrode on the irradiation side is biased to positive, mobility of positive carriers is determined, and when an electrode on the irradiation side is biased to negative, mobility of negative carriers is determined.
The measurement by a Time-of-Flight method was performed as follows. That is, while a voltage was applied to the liquid crystal cell produced in Example 4 at room temperature, the liquid crystal cell was irradiated with a pulse laser (Nd: YAG laser, THG: wavelength of 356 nm, pulse width of 1 ns), and a displacement current induced at the time of the irradiation was measured with a digital oscilloscope. […] In FIG. 7, the horizontal axis indicates time (μs), and the vertical axis indicates a photocurrent (μA). The present sample has favorable photoconductivity, and thus, sufficiently strong current signal could be obtained. […] According to the measurement result, the mobility of negative carriers reached maximum at 1×10^−3 cm^2/Vs at 30° C. This value is higher by an order of magnitude than the mobility of a conjugate polymer-fullerene derivative composite generally used in a bulk hetero junction-type organic thin-film solar battery.
Charge transport properties (carrier mobility properties) of the liquid crystal compound (2-44) ((2), m=0, n=1)) were measured through transient photocurrent measurement by a Time-of-Flight method using the liquid crystal cell produced in Example 8. The transient photocurrent measurement by a Time-of-Flight method was performed in the same manner as in the measurement of charge transport properties (carrier mobility properties) of the liquid crystal compound (2-1) ((2), m=1, n=1). The thickness of a sample of the liquid crystal compound (2-44) ((2), m=0, n=1)) was 25 μm. The measurement temperature was 40° C., and the measurement was performed while changing an applied voltage from 10 V to 100 V by 10 V increments. The graphs of FIGS. 11A and 11B show the results of the measurement. In FIGS. 11A and 11B, the horizontal axis indicates time (μs), and the vertical axis indicates a photocurrent (μA). As shown in FIGS. 11A and 11B, in the same time of flight, the higher the applied voltage was, the higher the photocurrent flowed.
In addition, the same measurement as in FIGS. 11A and 11B was performed with a change in measurement temperature from 25° C. to 130° C. The result of the measurement is shown in a graph of FIG. 12A. In FIG. 12A, the horizontal axis indicates an electric field strength (10^4 V/cm), and the vertical axis indicates carrier mobility (cm^2/Vs). […] Thus, the vertical axis (carrier mobility) is equal to electron mobility.
A result of the measurement at an electric field strength of 4.0×10^4 V/cm in FIG. 12A is shown in a graph of FIG. 12B as a function of time and electron mobility. […]

[2] = Solubility in organic solvents; assay type: physicochemical
Description: Thus, the liquid crystal compound (1-1) can be formed into a film by a spin coating method using a solution in any of these solvents. The film formation was performed as follows in the present example.
Thus, the liquid crystal compound (2-1) can be formed into a film by a spin coating method using a solution in any of these solvents. The film formation was performed as follows in the present example.

C[Si](C)(C)O[Si](C)(C)O[Si](C)(C)CCCCC(CCCC[Si](C)(C)O[Si](C)(C)O[Si](C)(C)C)Oc1ccc(N2C(=O)c3ccc4c5ccc6c7c(ccc(c8ccc(c3c48)C2=O)c75)C(=O)N(c2ccc(OC(CCCC[Si](C)(C)O[Si](C)(C)O[Si](C)(C)C)CCCC[Si](C)(C)O[Si](C)(C)O[Si](C)(C)C)cc2)C6=O)cc1 [Compound (5-1), N—N′-bis(4-(1,9,-di(1,1,1,3,3,5,5-heptamethyltrisiloxanyl)nonane-5-yloxy)phenyl)perylene-3,4,9,10-tetracarboxylic acid bisimide]
maximum electron mobility calculated by the TOF method [1]: 1×10^−4 cm/Vs

C[Si](C)(C)O[Si](C)(C)O[Si](C)(C)CCCCC(CCCC[Si](C)(C)O[Si](C)(C)O[Si](C)(C)C)N1C(=O)c2ccc3c4ccc5c6c(ccc(c7ccc(c2c37)C1=O)c64)C(=O)N(C(CCCC[Si](C)(C)O[Si](C)(C)O[Si](C)(C)C)CCCC[Si](C)(C)O[Si](C)(C)O[Si](C)(C)C)C5=O [Compound (2-1), perylene tetracarboxylic acid bis{di-(1,1,1,3,3,5,5-heptamethyltrisiloxanylbutyl)-methylimide}]
solubility in organic solvents [2]: soluble in ethyl acetate, acetone, cyclohexane, and the like in addition to toluene, chlorobenzene, tetrahydrofuran, chloroform, dichloromethane, and the like; also recorded: high solubility in various organic solvents

C=CCN1C(=O)c2ccc3c4ccc5c6c(ccc(c7ccc(c2c37)C1=O)c64)C(=O)N(CC=C)C5=O [Compound (6), perylene tetracarboxylic acid bis(allylimide)]
solubility in organic solvents [2]: barely dissolved in an organic solvent

C[Si](C)(C)O[Si](C)(C)O[Si](C)(C)CCCN1C(=O)c2ccc3c4ccc5c6c(ccc(c7ccc(c2c37)C1=O)c64)C(=O)N(CCC[Si](C)(C)O[Si](C)(C)O[Si](C)(C)C)C5=O [Compound (1-1), perylene tetracarboxylic acid bis(1,1,1,3,3,5,5-heptamethyltrisiloxanylpropylimide)]
solubility in organic solvents [2]: soluble in toluene, chlorobenzene, tetrahydrofuran, chloroform, dichloromethane, and the like; also recorded: high solubility in various organic solvents

C[Si](C)(C)O[Si](C)(C)CCCCC(CCCC[Si](C)(C)O[Si](C)(C)C)N1C(=O)c2ccc3c4ccc5c6c(ccc(c7ccc(c2c37)C1=O)c64)C(=O)N(C(CCCC[Si](C)(C)O[Si](C)(C)C)CCCC[Si](C)(C)O[Si](C)(C)C)C5=O [Compound (2-44)]
electron mobility relative to the maximum electron mobility of liquid crystal compound (2-1) [1]: 100 times higher
maximum electron mobility ([1]; 40° C., electric field strength 4.0×10^4 V/cm, sample thickness 25 μm): 1.2×10^−1 cm^2/Vs
electron mobility at 130° C. relative to the electron mobility at 40° C. ([1]; temperature increased to 130° C.): about a half

C[Si](C)(C)O[Si](C)(C)CCCCCCC(CCCCCC[Si](C)(C)O[Si](C)(C)C)N1C(=O)c2ccc3c4ccc5c6c(ccc(c7ccc(c2c37)C1=O)c64)C(=O)N(C(CCCCCC[Si](C)(C)O[Si](C)(C)C)CCCCCC[Si](C)(C)O[Si](C)(C)C)C5=O [Compound (2-46)]
electron mobility relative to the maximum electron mobility of liquid crystal compound (2-1) [1]: about 10 times higher
maximum electron mobility calculated by the TOF method [1]: 1×10^−2 cm/Vs
